We go through 13 molecules from BindingDB's records for doi:10.1016/j.bmcl.2010.11.050 (The University of Tokushima Graduate School, 2010).

As usually defined, the Ki is the equilibrium dissociation constant of an inhibitor or competing ligand from its target. A low value points to higher affinity.

Chain of Carbonic anhydrase 2 (P00921 whole entry): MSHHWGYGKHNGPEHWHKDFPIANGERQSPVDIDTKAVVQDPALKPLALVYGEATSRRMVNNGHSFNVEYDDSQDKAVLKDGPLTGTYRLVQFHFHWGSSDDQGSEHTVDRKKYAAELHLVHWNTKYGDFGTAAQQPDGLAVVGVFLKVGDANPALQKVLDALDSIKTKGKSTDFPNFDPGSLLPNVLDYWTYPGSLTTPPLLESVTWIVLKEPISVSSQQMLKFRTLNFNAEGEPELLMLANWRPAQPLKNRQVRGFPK

The experiment concerns the target Carbonic anhydrase 2 (Bos taurus, UniProt P00921). Briefly: Binding affinity to bovine carbonic anhydrase 2.
For the molecule `Cc1cccc(S(N)(=O)=O)c1` [3-Methylbenzenesulfonamide], the Ki was determined as 132 nM. That is a sub-micromolar value. The same measure for `N#Cc1ccc(S(N)(=O)=O)cc1` [4-Cyano-Benzenesulfonamide]: 7.1 nM; for `NS(=O)(=O)c1ccc(Br)cc1` [p-Halide-sulfanilamide derivative, 2a]: 14 nM; for `NS(=O)(=O)c1cccc(Cl)c1` [3-Chloro-Benzenesulfonamide]: 16 nM.

Molecule `NS(=O)(=O)c1ccc(Cl)c([N+](=O)[O-])c1` [4-Chloro-3-nitro-benzenesulfonamide] registered an inhibition constant Ki of 2 nM.

In turn, `NS(=O)(=O)c1ccc(Cl)cc1` [p-Halide-sulfanilamide derivative, 2] registered a Ki of 14 nM. The same measure for `COc1ccc(S(N)(=O)=O)cc1` [4-Methoxy-Benzenesulfonamide]: 102 nM; for `CC(=O)c1ccc(S(N)(=O)=O)cc1` [4-Acetyl-Benzenesulfonamide]: 17 nM. The same measure for `NS(=O)(=O)c1ccc([N+](=O)[O-])c(C(F)(F)F)c1`: 1.7 nM. `NS(=O)(=O)c1ccc(Cl)c(Cl)c1` [3,4-Dichloro-Benzenesulfonamide] displayed a Ki of 2.5 nM.

`CNc1ccc(S(N)(=O)=O)cc1` [4-Methylamino-benzenesulfonamide] gave a Ki of 288 nM. For `NS(=O)(=O)c1cccc([N+](=O)[O-])c1` [3-Nitro-benzenesulfonamide] the value was 8.5 nM; for `Cc1ccc(S(N)(=O)=O)cc1`, 58 nM.
